# Experimental data as given in ChEMBL document CHEMBL1121621, “Synthesis and antiarrhythmic activity of alpha, alpha-bis[(dialkylamino)alkyl]phenylacetamides” (J Med Chem, 1980).
# Activity calls are given as the source filed them. The calls are words filed in the database; no cut-off is given here.
# Columns and labels:
# Canis familiaris [1] = test: Compound was evaluated for duration of action after oral administration at a dose 12 mg/kg to dog.; assay type: functional, Canis lupus familiaris
# Canis familiaris [2] = test: Compound was evaluated for duration of action after oral administration at a dose 25 mg/kg to dog.; assay type: functional, Canis lupus familiaris
# Canis familiaris [3] = test: Compound was evaluated for onset of action after oral administration at a dose 12 mg/kg to dog.; assay type: functional, Canis lupus familiaris
# Canis familiaris [4] = test: Compound was evaluated for maximum reduction of ectopic beats after oral administration at a dose 25 mg/kg to dog.; assay type: functional, Canis lupus familiaris, Heart
# Canis familiaris [5] = test: Compound was evaluated for onset of action after oral administration at a dose 15 mg/kg to dog.; assay type: functional, Canis lupus familiaris
# Canis familiaris [6] = test: Compound was evaluated for maximum reduction of ectopic beats after oral administration at a dose 12 mg/kg to dog.; assay type: functional, Canis lupus familiaris, Heart
# Canis familiaris [7] = test: Compound was evaluated for maximum reduction of ectopic beats after oral administration at a dose 15 mg/kg to dog.; assay type: functional, Canis lupus familiaris, Heart
# Canis familiaris [8] = test: Activity duration index was evaluated in mixed-breed or Beagle dogs after intravenous administration.; assay type: functional, Canis lupus familiaris
# Canis familiaris [9] = test: Compound was evaluated for onset of action after oral administration at a dose 25 mg/kg to dog.; assay type: functional, Canis lupus familiaris
# Canis familiaris [10] = test: Antiarrhythmic activity was evaluated in mixed-breed or Beagle dogs after intravenous administration.; assay type: functional, Canis lupus familiaris, Heart
# [11] = Therapeutic ratio in mixed-breed or Beagle dogs after intravenous administration of the compound.; assay type: ADME, Canis lupus familiaris; details: dog, in vivo, read-out: TR
# Canis familiaris [12] = test: Minimum effective dose evaluated in mixed-breed or Beagle dogs after intravenous administration; assay type: functional; details: Canis lupus familiaris, read-out: MED
# Canis familiaris [13] = test: Compound was evaluated for duration of action after oral administration at a dose 15 mg/kg to dog.; assay type: functional, Canis lupus familiaris
# Canis familiaris [14] = test: Compound was evaluated for maximum reduction of ectopic beats after oral administration at a dose 25 mg/kg to dog; L means lethal; assay type: functional, organism-based; set-up: dose 25 mg/kg; details: Canis lupus familiaris; Heart
# [15] = Therapeutic ratio was evaluated in mixed-breed or Beagle dogs after intravenous administration of the compound; assay type: ADME, Canis lupus familiaris; details: dog, in vivo, read-out: TR
# Canis familiaris [16] = test: Minimum effective dose was evaluated in mixed-breed or Beagle dogs after intravenous administration of the compound; assay type: functional; details: Canis lupus familiaris, read-out: MED
# Canis familiaris [17] = test: Compound was evaluated for maximum reduction of ectopic beats after oral administration at a dose 25 mg/kg to dog; IA means inactive; assay type: functional, organism-based; set-up: dose 25 mg/kg; details: Canis lupus familiaris; Heart
# Canis familiaris [18] = test: Compound was evaluated for maximum reduction of ectopic beats after oral administration at a dose 15 mg/kg to dog; IA means inactive; assay type: functional, organism-based; set-up: dose 15 mg/kg; details: Canis lupus familiaris; Heart
compound,measurement,setting,value
CC(C)N(CCC(CCN1CCCCC1)(C(N)=O)c1ccccc1Cl)C(C)C (stereo unspecified) [DISOBUTAMIDE],Duration,Canis familiaris [1],75 min
same,Duration,Canis familiaris [2],>360 min
same,Onset of action,Canis familiaris [3],135 min
same,Max reduction,Canis familiaris [4],100%
same,Onset of action,Canis familiaris [5],85 min
same,Reduction,Canis familiaris [6],49%
same,Max reduction,Canis familiaris [7],90%
same,ADI,Canis familiaris [8],1.76
same,Onset of action,Canis familiaris [9],80 min
same,AR,Canis familiaris [10],8.4
same,selectivity ratio,[11],8.8
same,minimal effective dose,Canis familiaris [12],3.3 mg/kg
same,Duration,Canis familiaris [13],210 min
CC(C)N(CCC(CCC1CCCCC1)(C(N)=O)c1ccccc1Cl)C(C)C (stereo unspecified),ADI,Canis familiaris [8],3.07
same,Reduction,Canis familiaris [14],Lethal
same,minimal effective dose,Canis familiaris [12],3.5 mg/kg
same,selectivity ratio,[15],6.1
CC(C)N(CCC(CCN1CCOCC1)(C(N)=O)c1ccccc1Cl)C(C)C (stereo unspecified),minimal effective dose,Canis familiaris [16],11.7 mg/kg
same,ADI,Canis familiaris [8],0.49
same,AR,Canis familiaris [10],3.4
CC(C)N(CCC(CCN1CC2CCC(CC2)C1)(C(N)=O)c1ccccc1)C(C)C (stereo unspecified),ADI,Canis familiaris [8],0.96
same,AR,Canis familiaris [10],7
same,Reduction,Canis familiaris [17],inactive
same,selectivity ratio,[11],12.5
same,minimal effective dose,Canis familiaris [12],2.5 mg/kg
CC(C)N(CCC(CCN1CCCCC1)(C(N)=O)c1ccccc1F)C(C)C (stereo unspecified),Duration,Canis familiaris [1],90 min
same,Duration,Canis familiaris [2],300 min
same,Onset of action,Canis familiaris [3],90 min
same,Reduction,Canis familiaris [4],100%
same,Reduction,Canis familiaris [6],67%
same,ADI,Canis familiaris [8],1.47
same,Onset of action,Canis familiaris [9],45 min
same,AR,Canis familiaris [10],6
same,selectivity ratio,[11],18
same,minimal effective dose,Canis familiaris [12],1.8 mg/kg
CC(C)N(CCC(C(N)=O)(c1ccccc1)c1ccccn1)C(C)C (stereo unspecified) [DISOPYRAMIDE],Reduction,Canis familiaris [18],inactive
same,Duration,Canis familiaris [2],120 min
same,Reduction,Canis familiaris [4],79%
same,ADI,Canis familiaris [8],0.5
same,Onset of action,Canis familiaris [9],172 min
same,AR,Canis familiaris [10],4.1
same,selectivity ratio,[11],6.6
same,minimal effective dose,Canis familiaris [12],6.6 mg/kg
CC(C)N(CCC(CCN(C(C)C)C(C)C)(C(N)=O)c1ccc(C(C)(C)C)cc1)C(C)C,ADI,Canis familiaris [8],1.35
same,minimal effective dose,Canis familiaris [12],2 mg/kg
same,selectivity ratio,[15],4.9
